Data as given in patent US10723706B2, “Perk inhibitors and uses thereof in treating diseases associated with aggregation-prone proteins” (Ramot at Tel-Aviv University Ltd., priority 2016, dated 2020).

Assays:
RIPK1 = molecular target: T1, RIPK1 (Homo sapiens, UniProt Q13546); conditions: Rojas-Rivera et al. 2017; cited from earlier work
T1 sequence (Q13546 1-671): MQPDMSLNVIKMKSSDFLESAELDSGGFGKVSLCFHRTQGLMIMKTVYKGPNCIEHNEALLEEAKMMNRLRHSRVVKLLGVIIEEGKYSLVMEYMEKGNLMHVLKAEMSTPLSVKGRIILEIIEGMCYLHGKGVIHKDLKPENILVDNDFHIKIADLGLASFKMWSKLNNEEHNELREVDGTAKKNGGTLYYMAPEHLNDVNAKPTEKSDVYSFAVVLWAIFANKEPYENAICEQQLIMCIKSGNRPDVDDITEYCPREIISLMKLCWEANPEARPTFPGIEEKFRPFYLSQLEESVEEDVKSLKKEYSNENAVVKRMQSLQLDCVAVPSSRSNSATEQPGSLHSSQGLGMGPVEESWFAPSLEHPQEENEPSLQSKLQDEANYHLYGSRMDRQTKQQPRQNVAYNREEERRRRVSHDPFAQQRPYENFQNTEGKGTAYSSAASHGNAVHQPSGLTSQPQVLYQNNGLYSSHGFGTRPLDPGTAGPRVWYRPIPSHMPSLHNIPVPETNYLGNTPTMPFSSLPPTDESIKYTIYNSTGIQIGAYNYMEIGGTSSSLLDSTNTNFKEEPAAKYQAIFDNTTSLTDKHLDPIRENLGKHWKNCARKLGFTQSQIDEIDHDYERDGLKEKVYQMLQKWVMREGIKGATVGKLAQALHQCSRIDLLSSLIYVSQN

[1] = tested on: betaTC-tet pancreatic islet beta-cell line; assay: Toxicity in pancreatic beta cells; format: cell-based, mouse; conditions: betaTC-tet cells, tested concentration range up to 500 nm
Experimental: MK-28 toxicity was tested in pancreatic beta cells, the type of cell that is most sensitive when ER stress response pathways are affected. A conditionally transformed mouse pancreatic islet beta-cell line (betaTC-tet), such as described by Efrat [Ann NY Acad Sci 1999, 875:286-293], was used. These cells produce high amounts of insulin, resulting in a high protein load in the ER, making them very sensitive to ER stress and other stimuli, such as cytokine effects. Compromising any of the UPR branches leads to cytotoxicity in these cells. MK-28 was compared to the ER stressor tunicamycin (Tun).

STHdhQ111/111 cells = assay: Rescue from UPR-induced cell death (tunicamycin), PI cell cycle FACS, sub-G0/G1 fraction; format: cell-based; conditions: Tun for 48 hours
Experimental: (§1) STHdhQ7/7 and STHdhQ111/111 cells were grown as described in Leitman et al. [PLoS One 2014, 9(3):e90803].
After the indicated treatment times in full medium or in DMEM without serum, cells were incubated with propidium iodide (PI) solution ([…]) and read by flow cytometry as described in Leitman et al. [PLoS One 2014, 9(3):e90803]. Cells in sub-G0/G1 were counted as apoptotic/dead cells.
The activity of the novel inhibitors, compared to A4, in preventing cytotoxicity induced by pathogenic Htt, was then tested. A stable murine striatal cell line expressing full-length polyQ-expanded Htt, STHdhQ^111/111, was used.

cells = assay: Intrinsic cytotoxicity on cells; format: cell-based
PKR (eIF2αK2) = molecular target: T2, PKR (eIF2αK2) (Mus musculus, UniProt Q03963); assay: PKR activity induced with poly-I:C in cells; format: cell-based
T2 construct: endogenous in cells
T2 sequence (Q03963 1-515): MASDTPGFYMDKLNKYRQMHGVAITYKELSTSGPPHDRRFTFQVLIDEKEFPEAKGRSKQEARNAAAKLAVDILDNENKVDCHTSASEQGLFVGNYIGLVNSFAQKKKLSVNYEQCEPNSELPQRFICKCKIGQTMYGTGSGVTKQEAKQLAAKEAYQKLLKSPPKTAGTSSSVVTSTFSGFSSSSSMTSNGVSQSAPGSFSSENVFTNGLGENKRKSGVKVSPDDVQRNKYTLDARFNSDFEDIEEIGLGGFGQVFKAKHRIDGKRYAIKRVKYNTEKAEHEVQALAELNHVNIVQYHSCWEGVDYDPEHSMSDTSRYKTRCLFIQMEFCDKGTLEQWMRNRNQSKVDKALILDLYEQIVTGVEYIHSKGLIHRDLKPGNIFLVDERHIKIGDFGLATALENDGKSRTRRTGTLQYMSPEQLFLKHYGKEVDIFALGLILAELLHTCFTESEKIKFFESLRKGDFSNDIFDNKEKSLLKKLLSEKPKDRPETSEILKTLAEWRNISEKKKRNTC
Experimental: (§2) Cells were treated with Tun ([…]) or with A4, PKRi, poly-I:C or exemplary PERK inhibitors of the present embodiments, by adding the tested compound to the cell medium at the indicated concentrations and times. Cell lysis and immunoblotting was performed as described in Leitman et al. [PLoS One 2014, 9(3):e90803].

PERK (eIF2αK3) = molecular target: T3, PERK (eIF2αK3) (Mus musculus, UniProt Q9Z2B5); assay: ER stress-mediated eIF2α phosphorylation in tunicamycin-treated striatal cells (immunoblotting); format: cell-based, murine; conditions: STHdhQ7/7 cells, Tun 5 μg/ml for 48 hours; A4 50 μM, PKRi 1 μM
T3 construct: endogenous in cells; host or cells: STHdhQ7/7 murine striatal cells
T3 sequence (Q9Z2B5 29-1114): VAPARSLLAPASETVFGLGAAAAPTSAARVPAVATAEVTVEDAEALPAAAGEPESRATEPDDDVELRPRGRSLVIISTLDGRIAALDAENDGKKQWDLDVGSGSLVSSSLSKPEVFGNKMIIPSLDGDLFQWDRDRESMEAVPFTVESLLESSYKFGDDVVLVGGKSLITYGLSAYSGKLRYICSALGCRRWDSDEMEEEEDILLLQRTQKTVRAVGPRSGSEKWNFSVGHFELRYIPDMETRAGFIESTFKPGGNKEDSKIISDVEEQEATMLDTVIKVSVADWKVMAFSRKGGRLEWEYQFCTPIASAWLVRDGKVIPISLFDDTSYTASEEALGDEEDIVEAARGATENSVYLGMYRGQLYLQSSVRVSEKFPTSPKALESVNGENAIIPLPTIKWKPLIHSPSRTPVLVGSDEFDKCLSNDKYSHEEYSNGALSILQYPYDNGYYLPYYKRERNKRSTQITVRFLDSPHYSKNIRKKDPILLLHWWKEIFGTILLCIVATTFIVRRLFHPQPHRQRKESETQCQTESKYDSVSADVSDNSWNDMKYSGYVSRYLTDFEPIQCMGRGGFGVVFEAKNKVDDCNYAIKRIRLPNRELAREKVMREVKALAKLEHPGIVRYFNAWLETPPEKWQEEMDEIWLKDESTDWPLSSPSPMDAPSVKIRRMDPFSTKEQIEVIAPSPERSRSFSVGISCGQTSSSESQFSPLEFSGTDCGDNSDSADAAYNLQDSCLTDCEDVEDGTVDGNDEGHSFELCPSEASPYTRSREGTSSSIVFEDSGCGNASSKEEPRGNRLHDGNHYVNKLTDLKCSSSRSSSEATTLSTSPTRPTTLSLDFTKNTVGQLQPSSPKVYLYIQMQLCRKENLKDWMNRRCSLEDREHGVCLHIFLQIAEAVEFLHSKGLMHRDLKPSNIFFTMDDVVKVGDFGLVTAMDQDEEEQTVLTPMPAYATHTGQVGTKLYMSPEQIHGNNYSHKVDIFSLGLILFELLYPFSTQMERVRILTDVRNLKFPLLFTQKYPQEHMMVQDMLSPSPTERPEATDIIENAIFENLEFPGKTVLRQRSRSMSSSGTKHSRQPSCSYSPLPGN
Experimental: as §1, §2
As the activity of PERK was particularly affected in the Huntington's disease (HD) models [Leitman et al., PLoS One 2014, 9(3):e90803], the therapeutic capacity of a PERK inhibitor named A4 [Wang et al., Chem Biol Drug Des 2010, 76:480-495] was tested in cells expressing polyQ-expanded Htt, as depicted in Background art FIG. 1.

Compound: Cc1cccc(CC(=O)N2CCc3c2ccc(-c2cn(C)c4ncnc(N)c24)c3F)n1 [GSK2656157]
- inhibition of RIPK1 (RIPK1): potent inhibitors of RIPK1

Compound: Cn1cc(-c2ccc3c(c2)CCN3C(=O)Cc2cccc(C(F)(F)F)c2)c2c(N)ncnc21 [GSK2606414]
- inhibition of RIPK1 (RIPK1): potent inhibitors of RIPK1

Compound: Tunicamycin [reference compound]
- toxicity in pancreatic beta cells [1]: toxic

Compound: COc1cc(/C=N\N(C)c2nc(-c3ccccc3)cc(-c3ccccc3)n2)ccc1O [Compound 1, 2-{N-methyl-N′-(3-methoxy-4-hydroxybenzylidene)hydrazinyl}-4,6-diphenylpyrimidine]
- rescue from UPR-induced cell death (cytotoxicity) (STHdhQ111/111 cells): more potent than A4
- intrinsic cytotoxicity on cells (cells): neither MPGL1 nor MK-28 exhibited intrinsic cytotoxicity

Compound: O=C1Nc2ccc3ncsc3c2/C1=C/c1cnc[nH]1 [PKRi, reference compound]
- inhibition of PKR activity (PKR (eIF2αK2)): inhibited
- rescue from UPR-induced cell death (cytotoxicity) (STHdhQ111/111 cells): had no effect
- rescue from UPR-induced cell death (cytotoxicity) (STHdhQ111/111 cells; listed as PKR inhibitor): no effect
- inhibition of ER stress-mediated eIF2α phosphorylation (PERK (eIF2αK3)): not by PKRi
